Data on 7 compounds can be found in patent publication US12077503B2, “Substituted cyclic amides and their use as herbicides” (FMC CORPORATION, priority 2015, dated 2024).

Assay type in all cases: in vivo
Test [1] relates to ryegrass, Italian (Italian ryegrass, Lolium multiflorum). Put plainly: Test A preemergence. The following applies: Lolium multiflorum, pre-emergence, 240 h, preemergence, read-out: Plant response rating, Ryegrass, Italian; for pest or weed control at 125 g/ha: 125 g ai/ha, visual rating after approx. 10 d, 0 to 100 scale where 0 is no effect and 100 is complete control; for pest or weed control at 500 g/ha: 500 g ai/ha, 0 to 100 scale, 0 = no effect, 100 = complete control. Summed up:
(§1)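 Visual injury, scored on a 0–100 scale relative to untreated controls, was recorded about 10 d after application. Treatments were a preemergence soil spray over planted seeds or a postemergence spray on plants at the one- to two-leaf stage, 2 to 10 cm tall, all in loam soil–sand blend in the greenhouse.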

Test [2] concerns blackgrass (Alopecurus myosuroides). Put plainly: Test A postemergence. Particulars: Alopecurus myosuroides, post-emergence, 240 h, 125 g ai/ha, postemergence; visual injury after approximately 10 d; 0 to 100 scale (0 no effect, 100 complete control); read-out: Plant response rating, Blackgrass. Summed up: as §1
The test system of test [3] is Galium (catchweed bedstraw, Galium aparine). Put plainly: Test A postemergence. Particulars: Galium, post-emergence, 240 h, 125 g ai/ha, postemergence; visual injury after approximately 10 d; 0 to 100 scale (0 no effect, 100 complete control); read-out: Plant response rating, Galium. The procedure, abridged: as §1
In the next test the test system is Kochia (Kochia scoparia). Description: Test A postemergence. Particulars: Bassia scoparia, post-emergence, 240 h, 125 g ai/ha, postemergence; visual injury after approximately 10 d; 0 to 100 scale (0 no effect, 100 complete control); read-out: Plant response rating, Kochia. Summed up: as §1
Test [4] has as its system barnyardgrass (Echinochloa crus-galli). Description: Test A postemergence. Particulars: Echinochloa crus-galli, post-emergence, 240 h, 125 g ai/ha, postemergence; visual injury after approximately 10 d; 0 to 100 scale (0 no effect, 100 complete control); read-out: Plant response rating, Barnyardgrass. Summed up: as §1
The test system of test [5] is giant foxtail (Setaria faberii). Put plainly: Test A postemergence. Particulars: Setaria faberi, post-emergence, 240 h, 125 g ai/ha, postemergence; visual injury after approximately 10 d; 0 to 100 scale (0 no effect, 100 complete control); read-out: Plant response rating, Foxtail, Giant. Summed up: as §1
Test [6] deals with wheat (Triticum aestivum). Description: Test A postemergence. Particulars: Triticum aestivum, post-emergence, 240 h, 125 g ai/ha, postemergence; visual injury after approximately 10 d; 0 to 100 scale (0 no effect, 100 complete control); read-out: Plant response rating, Wheat. The procedure, abridged:
as §1

In test [7] the test system is ragweed (common ragweed, Ambrosia elatior). Put plainly: Test A postemergence. The following applies: Ambrosia artemisiifolia, post-emergence, 240 h, 125 g ai/ha, postemergence; visual injury after approximately 10 d; 0 to 100 scale (0 no effect, 100 complete control); read-out: Plant response rating, Ragweed. Summed up: as §1
Test [8] has as its system pigweed (Amaranthus retroflexus). Put plainly: Test A postemergence. Particulars: Amaranthus retroflexus, post-emergence, 240 h, 125 g ai/ha, postemergence; visual injury after approximately 10 d; 0 to 100 scale (0 no effect, 100 complete control); read-out: Plant response rating, Pigweed. The procedure, abridged: as §1
In a further test the test system is corn (Zea mays). Description: Test A postemergence. The following applies: Zea mays, post-emergence, 240 h, 125 g ai/ha, postemergence; visual injury after approximately 10 d; 0 to 100 scale (0 no effect, 100 complete control). Summed up:
as §1

In test [9] the test system is ryegrass, Italian (Italian ryegrass, Lolium multiflorum). Description: Test A postemergence. The following applies: Lolium multiflorum, post-emergence, 240 h, 125 g ai/ha, postemergence; visual injury after approximately 10 d; 0 to 100 scale (0 no effect, 100 complete control); read-out: Plant response rating, Ryegrass, Italian. The procedure, abridged: as §1
The test system of test [10] is ducksalad (Heteranthera limosa). Description: Test B flooded paddy test. Particulars: Heteranthera limosa, Flood, 250 g ai/ha; scale of 0 to 100 where 0 is no effect and 100 is complete control; read-out: Ducksalad plant response rating. The procedure, abridged:
(§2)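 Response scored visually against untreated controls, 0 = no effect and 100 = complete control, 13–15 d after treatment in the greenhouse. Compounds added to paddy water held 3 cm above soil surface. Treatment given at 2-leaf stage.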

Test [11] relates to sedge, umbrella (small-flower umbrella sedge, Cyperus difformis). Description: Test B flooded paddy test. Particulars: Cyperus difformis, Flood, 250 g ai/ha; scale of 0 to 100 where 0 is no effect and 100 is complete control; read-out: Sedge, Umbrella plant response rating. Summed up: as §2
For test [12], the system named is barnyardgrass (Echinochloa crus-galli). Description: Test B flooded paddy test. The following applies: Echinochloa crus-galli, Flood, 250 g ai/ha; scale of 0 to 100 where 0 is no effect and 100 is complete control; read-out: Barnyardgrass plant response rating. Summed up: as §2
The test system of a further test is rice (Oryra sativa). Description: Test B flooded paddy test. Particulars: Oryza sativa, Flood, 250 g ai/ha; scale of 0 to 100 where 0 is no effect and 100 is complete control; read-out: Rice plant response rating. Summed up:
as §2

For the compound `C=CCN1C[C@H](c2ccc(OC)c(F)c2)[C@@H](C(=O)Nc2ccccc2C(F)(F)F)C1=O` [Compound 723], the pest or weed control at 125 g/ha (in test [1]; in test [2]; in [3]; in the test on Kochia (Kochia scoparia); in test [4]; in test [5]) was 0% throughout. Further, the pest or weed control at 125 g/ha in [7], in test [8] and in [9] was 0% throughout. Moreover, the pest or weed control at 500 g/ha in [1] came to 0%. For the same compound, the plant injury at 125 g/ha in test [6] turned out to be 0%. Besides, the Corn plant response rating (crop injury, 0 = no effect, 100 = complete kill) at 125 g/ha with corn (Zea mays) amounted to 0%. Besides, the pest or weed control at 250 g/ha (in test [10]; in test [11]; in test [12]; in the test with rice (Oryra sativa)) was 0% in each case.

Take `O=C1NC[C@H](c2ccc3c(c2)OCO3)[C@H]1C(=O)Nc1cccc(F)c1F` [Compound 731]: the pest or weed control at 125 g/ha in test [1] turned out to be 20%; in test [2], 0%; in [3] it was 20%; with Kochia (Kochia scoparia) it was 0%; in [4] it was 70%; in [5], 50%. For the same compound, the pest or weed control at 125 g/ha in test [7], in test [8] and in [9] was 0% each time. In [1], the pest or weed control at 500 g/ha stood at 40%. In [6], the plant injury at 125 g/ha worked out at 0%. The same compound showed a Corn plant response rating (crop injury, 0 = no effect, 100 = complete kill) at 125 g/ha in the test on corn (Zea mays) of 0%. Moreover, the pest or weed control at 250 g/ha in test [10] is 100%; in test [11] it was 0%; in [12], 60%; in the test on rice (Oryra sativa) it was 20%.

`Cc1ccc([C@H]2CN(C)C(=O)[C@@H]2C(=O)Nc2cccc(F)c2C)cc1C` [Compound 732]: the pest or weed control at 125 g/ha in test [1] was 80%; in test [2], 50%; in test [3], 30%; in the test on Kochia (Kochia scoparia), 20%; in [4], 90%; in test [5], 90%. Moreover, the pest or weed control at 125 g/ha was 0% in [7], 0% in [8] and 50% in test [9]. Also, in [1], the pest or weed control at 500 g/ha turned out to be 80%. For the same compound, in [6], the plant injury at 125 g/ha amounted to 80%. In addition, the Corn plant response rating (crop injury, 0 = no effect, 100 = complete kill) at 125 g/ha in the test on corn (Zea mays) amounted to 70%. Also, the pest or weed control at 250 g/ha in test [10] was 100%; in [11], 0%; in [12], 45%; in the test on rice (Oryra sativa), 0%.

`CCc1cc(CC)cc([C@H]2CN(C)C(=O)[C@@H]2C(=O)Nc2ccccc2C(F)(F)F)c1` [Compound 737]: the pest or weed control at 125 g/ha in [1] was determined as 40%; in test [2] it was 30%; in [3] it was 30%; in the test on Kochia (Kochia scoparia), 0%; in test [4], 40%; in [5], 70%. Also, the results for the pest or weed control at 125 g/ha in test [7], in test [8] and in test [9] were 0%, 20% and 50%, respectively. In test [1], the pest or weed control at 500 g/ha was found to be 70%. Further, the plant injury at 125 g/ha in test [6] worked out at 40%. The compound further gave a Corn plant response rating (crop injury, 0 = no effect, 100 = complete kill) at 125 g/ha in the test with corn (Zea mays) of 40%. For the same compound, the pest or weed control at 250 g/ha (in test [10]; in test [11]; in [12]; in the test with rice (Oryra sativa)) was 0% throughout.

Consider `O=C1NC[C@H](c2cnc(C(F)(F)F)nc2)[C@H]1C(=O)Nc1ccccc1F` [Compound 741], for which the pest or weed control at 125 g/ha (in test [1]; in [2]; in [3]; in the test with Kochia (Kochia scoparia); in test [4]; in test [5]) was 0% throughout. Also, the pest or weed control at 125 g/ha in test [7], in test [8] and in test [9] was 0% in each case. In [1], the pest or weed control at 500 g/ha was determined as 0%. The plant injury at 125 g/ha in [6] stood at 0%. For the same compound, the Corn plant response rating (crop injury, 0 = no effect, 100 = complete kill) at 125 g/ha with corn (Zea mays) turned out to be 0%. Besides, the pest or weed control at 250 g/ha in test [10] turned out to be 90%; in test [11] it was 40%; in [12] it was 0%; in the test on rice (Oryra sativa), 0%.

Regarding `O=C1NC[C@H](c2ccc(C(F)(F)F)cc2)[C@H]1C(=O)Nc1ccccc1C1CC1` [Compound 746], the pest or weed control at 125 g/ha in test [1] stood at 0%; in test [2], 20%; in test [3], 50%; with Kochia (Kochia scoparia) it was 0%; in test [4] it was 20%; in test [5] it was 50%. The pest or weed control at 125 g/ha in [7], in test [8] and in test [9] was 0% throughout. In addition, the pest or weed control at 500 g/ha in test [1] turned out to be 40%. For the same compound, in test [6], the plant injury at 125 g/ha amounted to 0%. In the test with corn (Zea mays), this compound registered a Corn plant response rating (crop injury, 0 = no effect, 100 = complete kill) at 125 g/ha of 0%. In addition, the pest or weed control at 250 g/ha in [10] was found to be 95%; in [11], 0%; in [12] it was 0%; in the test with rice (Oryra sativa) it was 0%.

For `CN1C[C@H](c2ccc(C(F)(F)F)cc2)[C@@H](C(=O)Nc2ccccc2C2CC2)C1=O` [Compound 747], the pest or weed control at 125 g/ha was 0% in test [1]; 30% in test [2]; 60% in [3]; 20% with Kochia (Kochia scoparia); 40% in test [4]; 70% in test [5]. Also, the values for the pest or weed control at 125 g/ha in test [7], in [8] and in [9] were 0%, 30% and 0%, respectively. The pest or weed control at 500 g/ha in test [1] was determined as 60%. For the same compound, in test [6], the plant injury at 125 g/ha came to 0%. This compound gave a Corn plant response rating (crop injury, 0 = no effect, 100 = complete kill) at 125 g/ha with corn (Zea mays) of 0%. In addition, the pest or weed control at 250 g/ha in test [10] was 90%; in test [11] it was 0%; in test [12], 0%; with rice (Oryra sativa), 15%.
